Laboratory results: paper PMC9839752, “Formaldehyde reacts with N-terminal proline residues to give bicyclic aminals” (Communications Chemistry, 2023)
Like-named read-outs stand apart in the source and are kept apart here. Peptide text beside a SMILES is read from it.

What was measured:
[1] = NMR stability of HCHO adducts to HCHO scavengers and pH; assay type: physicochemical; settings: for stability of HCHO adduct to 1,3-cyclohexanedione (1,3-CHD): 40-fold excess 1,3-CHD, pD 10, analysis period 22 h
Method: To investigate the stability and reversibility of the HCHO adducts (1a + b, 2a, 3a, 4a), the dipeptides were reacted with a 10-fold excess of HCHO at pD 10, then treated with the HCHO scavenger 1,3-cyclohexanedione (1,3-CHD)[14]. […]
(§1) NMR Time Course and Stability – Dipeptides
(§2) The dipeptide (23.3 µmol) was dissolved in D 2O; the pD was adjusted to 10 (corresponding to pH 9.6) using NaOD and DCl (total volume: 1 mL, 23.3 mM stock). HCHO (30.0 mg, 1.0 mmol) was suspended with D2O in a sealed microwave vial and heated until a clear colourless solution was obtained; the pD was then adjusted with NaOD and DCl to 10 (total volume: 3 mL, 1/3 M stock). For time course measurements, the dipeptide stock solutions (100 μL, 2.33 μmol) at pD 10 and D 2O (400 μL) were mixed and recorded. HCHO (70 μL, 23.3 μmol, 10 equivalents) at pD 10 was added and progress was monitored for the indicated time. To investigate the stability of the NMR-observed HCHO adducts, a 40-fold excess with respect to starting material of the HCHO scavenger 1,3-cyclohexanedione (1,3-CHD, 93.2 μL from 1 M stock in D2O) was added.
Additionally, stability studies of the HPLC -purified 2a and the corresponding pentapeptide PEPAK-HCHO adduct were conducted. To achieve a 40-fold excess of HCHO scavengers (46.8 μmol) with respect to peptide starting material, the appropriate volumes of GSH (186.4 μL from 250 mM stock), cysteine (46.6 μL from 1 M stock) or 1,3 -cyclohexanedione (46.6 μL from 1 M stock) were added to the peptide-HCHO adducts (50 μL, 1.17 μmol, 23.3 mM stock in D2O) in 400 μL of D2O, thoroughly mixed and recorded. To test for stability of the adduct in different pH conditions, HPLC purified 2a (45 μL of 23.3 mM stock) was dissolved in 405 μL of 50 mM potassium phosphate buffer (D2O) at pH 5.9, 7.4 and 8.5 (pD 6.3, 7.8 and 8.9), thoroughly mixed and recorded.

[2] = 1H NMR time course of reaction of dipeptides with HCHO; assay type: physicochemical; settings: dipeptide with 10-fold excess HCHO, pD 10, 1H NMR
Method: Fig. 3 HCHO reacts with an N-terminal proline to form a methylene bridge between an N-terminal nitrogen and the adjacent peptide bond nitrogen. a Products of reactions between HCHO and the dipeptides AzeGlu (n = 1, 1), ProGlu (n = 2, 2), and PipGlu (n = 3, 3). A 10-fold molar excess of aqueous HCHO (410 µmol) was added to each dipeptide (41 µmol).
The reactions of the dipeptides with HCHO (10-fold excess, pD 10) were studied in real time by ^1H NMR (Figs. 3c and S18). […] Dipeptide 2 was slower to react (2a formation rate 0.24 μM s^−1), while 3 was the slowest to react (3a formation rate 0.054 μM s^−1). […]
as §1
as §2, with “added. […]” for “added.”

[3] = molecular target: T1, 4-oxalocrotonate tautomerase (4-OT) (Pseudomonas putida, UniProt Q01468); settings: 4-OT (52.9 µM) pre-incubated with 200 equivalents of HCHO (10.6 mM) 17 h, 37 °C; buffer control complete after 14 min
[4] = test system: H2A mRNA; settings: HEK293T, HCHO-treated vs untreated, q = 0.043
Method: (§3) We then investigated whether the H2B-HCHO adduct can be identified in human HEK293T cells treated with HCHO. […] Given that N-terminal amino acids and their modifications can regulate protein stability by affecting degradation (the N-end rule)[27], we next investigated whether addition of HCHO to cells affects H2B turnover. HEK293T cells were treated with cycloheximide (CHX) to inhibit protein synthesis, with addition of HCHO and protein quantification.
(§4) (ab133512). Secondary antibodies used were anti-mouse IgG, HRP-linked Antibody (Cell Signaling, reference 7076), anti-Rabbit IgG (H+L) HRP Conjugate (Promega reference W4011).
(§5) HEK293T cells (0.9x106) were seeded into 6 cm dishes as biological triplicates. The next day, cells were treated with 150 μM HCHO (or MQ water control), followed by another cumulative treatment of 225 μM HCHO (or MQ water control) the day after that. Cells were harvested 4 h af ter the second

[5] = test system: H3 mRNA; settings: HEK293T, HCHO-treated vs untreated, q = 0.034
Method: as §3, §4, §5

[6] = test system: BL21(DE3) cells
[7] = test system: H2A; settings: HEK293T, HCHO, CHX (100 µM)
Method: as §3
(§6) Figure S26 | Stability of proteins with an N-terminal proline in the presence of HCHO and RNA-Seq analyses. a) HEK293T cells were treated with 120 µM HCHO (or acetone, or MQ water control; 100 mM stock solutions of carbonyl compounds in MQ water) for 14 h. The cells were then treated with 100 µM cycloheximide (CHX; from a 100 mM DMSO stock solution) and were harvested after 3 h.
(§7) Additionally, HEK293T cells were treated with 120 µM HCHO (or acetone, or MQ water control) for 14 h, followed by addition of CHX. 7.5 h after the CHX treatment, a further 180 µM of the carbonyl […]
(§8) (1 picture or pasted object on this page, not shown here)

[8] = molecular target: leukotriene A-4 hydrolase (LTA4H) (Homo sapiens, UniProt P09960); settings: HEK293T, CHX (100 µM)
Method: as §3, §6, §7, §8

[9] = test system: H3; settings: HEK293T, HCHO, CHX (100 µM)
Method: as §3, §6, §7, §8

[10] = test system: H2B; settings: HEK293T, HCHO, >10 h CHX (100 µM)
Method: as §3, §6, §7, §8

[11] = molecular target: T1, 4-oxalocrotonate tautomerase (4-OT); experiment: biochemical
[12] = test system: H2B mRNA; settings: HEK293T, HCHO 150+225 µM vs untreated, q = 0.043
Method: as §3, §6, §7, §8, §4
HEK293T cells (0.9x106) were seeded into 6 cm dishes as biological triplicates. […]

[13] = molecular target: T2, 4-OT (Pseudomonas putida, UniProt Q01468); experiment: cell-based
[14] = in vitro; settings: human, hek293t cells
Method: as §3, §8

[15] = molecular target: T3, human JmjC KDM KDM4E (Homo sapiens, UniProt B2RXH2); experiment: KDM4E-catalysed H3K9Me3 peptide demethylation, MALDI MS; assay type: biochemical; settings: 800 μM NOG instead of 2OG, 24 h
T3 construct: made in house; host or cells: E. coli BL21(DE3)
T3 sequence (B2RXH2 with tags, fused parts or gaps): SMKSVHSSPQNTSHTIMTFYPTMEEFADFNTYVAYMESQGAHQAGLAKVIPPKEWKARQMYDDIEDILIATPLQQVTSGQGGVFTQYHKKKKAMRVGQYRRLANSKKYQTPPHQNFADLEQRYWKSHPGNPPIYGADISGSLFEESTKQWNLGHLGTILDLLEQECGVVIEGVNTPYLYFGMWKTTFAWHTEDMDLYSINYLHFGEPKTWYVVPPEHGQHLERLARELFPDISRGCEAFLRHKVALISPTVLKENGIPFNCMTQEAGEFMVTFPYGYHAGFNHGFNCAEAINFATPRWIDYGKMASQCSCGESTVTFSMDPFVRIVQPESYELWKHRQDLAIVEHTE

[16] = molecular target: T2, 4-OT; experiment: 4-OT absorbance assay (320 nm), kinetic parameters; assay type: biochemical; settings: substrate acetaldehyde, 375 µM trans-β-nitrostyrene, 10 µM 4-OT, pH 7.4

T2 sequence (Q01468 2-63 limits assumed): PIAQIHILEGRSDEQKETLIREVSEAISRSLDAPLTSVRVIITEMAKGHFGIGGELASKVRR
T1 sequence (Q01468 2-63): as the sequence (Q01468 2-63 limits assumed) above
Sequence of leukotriene A-4 hydrolase (LTA4H) (P09960 2-611 limits assumed): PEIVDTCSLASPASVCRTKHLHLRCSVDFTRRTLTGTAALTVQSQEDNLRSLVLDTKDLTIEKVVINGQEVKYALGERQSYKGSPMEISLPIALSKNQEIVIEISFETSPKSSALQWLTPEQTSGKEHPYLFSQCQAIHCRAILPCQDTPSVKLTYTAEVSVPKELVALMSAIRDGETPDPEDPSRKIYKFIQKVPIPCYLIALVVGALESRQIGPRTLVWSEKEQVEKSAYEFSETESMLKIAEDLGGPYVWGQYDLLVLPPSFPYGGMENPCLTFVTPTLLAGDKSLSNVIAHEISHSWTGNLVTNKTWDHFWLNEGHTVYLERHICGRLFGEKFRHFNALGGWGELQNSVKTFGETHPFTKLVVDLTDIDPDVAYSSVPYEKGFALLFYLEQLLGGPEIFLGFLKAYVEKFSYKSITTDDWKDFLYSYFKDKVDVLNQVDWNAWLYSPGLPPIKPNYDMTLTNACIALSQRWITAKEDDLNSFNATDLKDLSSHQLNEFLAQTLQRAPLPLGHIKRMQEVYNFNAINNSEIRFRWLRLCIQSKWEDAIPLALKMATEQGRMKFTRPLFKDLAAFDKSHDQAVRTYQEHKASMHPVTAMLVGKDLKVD

O=C(O)CC[C@@H](C(=O)O)N1CN2CCC[C@H]2C1=O [2a]
stability of HCHO adduct to 1,3-cyclohexanedione (1,3-CHD) [1]: relatively stable | stability across a biologically relevant pH range ([1]; pH 5.9, 7.4 and 8.5): apparently stable | stability in the presence of HCHO scavengers cysteine and GSH ([1]; scavengers in 40-fold excess): apparently stable | formation rate of HCHO adduct [2]: 0.24 µM/s

C=O [HCHO, Formaldehyde]
time to near-complete substrate conversion [3]: > 72 min | H2A mRNA level, fold less in untreated cells [4]: 0.33 fold | H3 mRNA level, fold less in untreated cells [5]: 0.42 fold | effect on cell proliferation ([6]; 350 μM HCHO): did not inhibit | effect on cell proliferation ([6]; 700 μM HCHO): only mildly inhibited | H2A levels after prolonged CHX treatment [7]: higher levels | HCHO-dependent effect on LTA4H stability [8]: no evidence for a HCHO-dependent effect on its stability | H3 levels after prolonged CHX treatment [9]: higher levels | H2B levels after prolonged CHX treatment [10]: apparently higher H2B levels | IC50 [11]: < 10000 µM | H2B mRNA level, fold less in untreated cells [12]: 0.37 fold | EC50 [13]: ~350 µM | MNTC [14]: > 200 µM

O=C(O)CNC(=O)C(=O)O [N-oxalylglycine]
effect on H3K9Me3 demethylation and +12 Da H2B adduct formation [15]: abolished

C[C@H](N)C(=O)N[C@@H](CCC(=O)O)C(=O)O [compound 4, AlaGlu] (H-Ala-Glu-OH)
formation rate of HCHO adduct [2]: did not react to give a detected product

CC=O [acetaldehyde]
Km [16]: 74 mM

C[C@H]1C(=O)N([C@@H](CCC(=O)O)C(=O)O)CN1CO [4a]
stability of HCHO adduct to 1,3-cyclohexanedione (1,3-CHD) [1]: hemiaminal group of 4a was lost to give 4b

O=C(O)CC[C@@H](C(=O)O)N1CN2CCCC[C@H]2C1=O [3a]
stability of HCHO adduct to 1,3-cyclohexanedione (1,3-CHD) [1]: relatively stable | formation rate of HCHO adduct [2]: 0.054 µM/s

O=C(O)CC[C@H](NC(=O)[C@@H]1CCN1CO)C(=O)O [1b]
stability of HCHO adduct to 1,3-cyclohexanedione (1,3-CHD) [1]: underwent 1,3-CHD-enabled reaction to give 1

O=C(O)CC[C@@H](C(=O)O)N1CN2CC[C@H]2C1=O [1a]
stability of HCHO adduct to 1,3-cyclohexanedione (1,3-CHD) [1]: underwent 1,3-CHD-enabled reaction to give 1 | formation rate of HCHO adduct [2]: > 1.73 µM/s
